# Test results as given in patent US6380218B1, “Nicotinamide derivatives” (Pfizer Inc, priority 1997, dated 2002).
# Structures can show the parent of a compound that is named as a salt.
row,Compound,melting point [°C]
1,"O=C(NCc1ccccc1Cl)c1cccnc1Oc1cccnc1 (as salt: HCl) [Example 31, N-(2-Chloro-benzyl)-2-(pyridin-3-yloxy)-nicotinamide]",174 to 176
2,"C[C@H](NC(=O)c1cccnc1Oc1cccnc1)c1cccs1 (as salt: HCl) [Example 46, (S)(+)-2-(Pyridin-3-yloxy)-N-(1-thiophen-2-yl-ethyl)-nicotinamide]",196 to 198
3,"CN(C)c1cccc(Oc2ncccc2C(=O)NCc2ccccc2Cl)c1 (as salt: HCl) [Example 118, N-(2-Chloro-benzyl)-2-(3-dimethylamino-phenoxy)-nicotinamide]",85 to 87
4,"CC(O)c1ccc(CNC(=O)c2cccnc2Oc2cccnc2)s1 (single isomer, unassigned; (+)) [Example 205, (+)-N-[5-(1-Hydroxy-ethyl)-thiophen-2-ylmethyl]-2-(pyridin-3-yloxy)-nicotinamide]",88 to 90
5,"CC(O)C1CCC(CNC(=O)c2cccnc2Oc2ccc(F)c(C#N)c2)CC1 (single isomer, unassigned; (-)) [Example 320, (−)-2-(3-Cyano-4-fluoro-phenoxy)-N-[4-(1-hydroxy-ethyl)-cyclohexylmethyl]-nicotinamide]",134 to 135
6,"O=C(NCc1c(F)cccc1Cl)c1cccnc1Oc1ccc(F)cc1 [Example 5, N-(2-Chloro-6-fluoro-benzyl)-2-(4-fluoro-phenoxy)-nicotinamide]",115 to 118
7,"C[C@H](NC(=O)c1cccnc1Oc1ccc(F)cc1)c1cccs1 [Example 6, (S)(−)2-(4-Fluoro-phenoxy)-N-(1-thiophen-2-yl-ethyl)-nicotinamide]",59 to 61
8,"C[C@@H](NC(=O)c1cccnc1Oc1ccc(F)cc1)c1cccs1 [Example 7, (R)(+)2-(4-Fluoro-phenoxy)-N-(1-thiophen-2-yl-ethyl)-nicotinamide]",60 to 62
9,"CC(NC(=O)c1cccnc1Oc1ccc(F)cc1)c1ccc(Cl)s1 (stereo not shown) [Example 8, N-[1-(5-Chloro-thiophen-2-yl)-ethyl]-2-(4-fluoro-phenoxy)-nicotinamide]",87 to 89
10,"O=C(NCc1ccccc1Cl)c1cccnc1Oc1cccnc1 [Example 12, N-(2-Chloro-benzyl)-2-(pyridin-3-yloxy)-nicotinamide]",123 to 125
11,"CC(NC(=O)c1cccnc1Oc1cccnc1)c1ccc(Cl)s1 (stereo not shown) [Example 14, N-[1-(5-Chloro-thiophen-2-yl)-ethyl]-2-(pyridin-3-yloxy)-nicotinamide]",74 to 76
12,"O=C(NCc1ccco1)c1cccnc1Oc1cccnc1 [Example 15, N-Furan-2-ylmethyl-2-(pyridin-3-yloxy)-nicotinamide]",84 to 86
13,"O=C(NCc1ccc(Cl)s1)c1cccnc1Oc1cccnc1 [Example 16, N-(5-Chloro-thiophen-2-ylmethyl)-2-(pyridin-3-yloxy)-nicotinamide]",110 to 112
14,"Cc1ccc(CNC(=O)c2cccnc2Oc2cccnc2)s1 [Example 18, N-(5-Methyl-thiophen-2-ylmethyl)-2-(pyridin-3-yloxy)-nicotinamide]",111 to 113
15,"Cc1ccsc1CNC(=O)c1cccnc1Oc1cccnc1 [Example 20, N-(3-Methyl-thiophen-2-ylmethyl)-2-(pyridin-3-yloxy)-nicotinamide]",89 to 91
16,"O=C(NCc1cc(Cl)cs1)c1cccnc1Oc1cccnc1 [Example 21, N-(4-Chloro-thiophen-2-ylmethyl)-2-(pyridin-3-yloxy)-nicotinamide]",118 to 120
17,"O=C(NCc1nccs1)c1cccnc1Oc1cccnc1 [Example 24, 2-(Pyridin-3-yloxy)-N-thiazol-2-ylmethyl-nicotinamide]",94 to 96
18,"O=C(NCc1ccccc1F)c1cccnc1Oc1cccnc1 [Example 26, N-(2-Fluoro-benzyl)-2-(pyridin-3-yloxy)-nicotinamide]",90 to 92
19,"O=C(NCc1ccc(OC(F)F)cc1)c1cccnc1Oc1cccnc1 [Example 27, N-(4-Difluoromethoxy-benzyl)-2-(pyridin-3-yloxy)-nicotinamide]",91 to 93
20,"O=C(NCc1ccc(F)cc1)c1cccnc1Oc1cccnc1 [Example 28, N-(4-Fluoro-benzyl]-2-(pyridin-3-yloxy)-nicotinamide]",129 to 131

# The next lines start with the values.
row,melting point [°C],Compound
1,106 to 108,CC(C)(O)c1ccc(CNC(=O)c2cccnc2Oc2ccc(F)cc2)cc1
2,197 to 199,"C[C@@H](NC(=O)c1cccnc1Oc1cccnc1)c1cccs1 (as salt: HCl) [Example 47, (R)(−)-2-(Pyridin-3-yloxy)-N-(1-thiophen-2-yl-ethyl)-nicotinamide]"
3,78 to 80,"CC(NC(=O)c1cccnc1Oc1ccc(F)cc1)c1ccc(Cl)s1 (single isomer, unassigned; (+)) [Example 141, (+)-N-[1-(5-Chloro-thiophen-2-yl)-ethyl]-2-(4-fluoro-phenoxy)-nicotinamide]"
4,89 to 91,"O=C(NCc1cccs1)c1cccnc1Oc1ccc(F)cc1 [Example 1, 2-(4-Fluoro-phenoxy)-N-thiophen-2-ylmethyl-nicotinamide]"
5,71 to 73,"O=C(NCc1ccco1)c1cccnc1Oc1ccc(F)cc1 [Example 2, 2-(4-Fluoro-phenoxy)-N-furan-2-ylmethyl-nicotinamide]"
6,118 to 120,"O=C(NCc1ccccc1Cl)c1cccnc1Oc1ccc(F)cc1 [Example 9, N-(2-Chloro-benzyl)-2-(4-fluoro-phenoxy)-nicotinamide]"
7,122 to 124,"O=C(NCc1ccccc1Cl)c1cccnc1Oc1ccc(F)cc1F [Example 10, N-(2-Chloro-benzyl)-2-(2,4-difluoro-phenoxy)-nicotinamide]"
8,115 to 117,"O=C(NCc1ccccc1Cl)c1cccnc1Oc1cccc(F)c1 [Example 11, N-(2-Chloro-benzyl)-2-(3-fluoro-phenoxy)-nicotinamide]"
9,91 to 93,"Cc1ccc(CNC(=O)c2cccnc2Oc2cccnc2)cc1 [Example 13, N-(4-Methyl-benzyl)-2-(pyridin-3-yloxy)-nicotinamide]"
10,162 to 164,"Cc1ccc(C(C)NC(=O)c2cccnc2Oc2cccnc2)s1 (stereo not shown) [Example 17, N-[1-(5-Methyl-thiophen-2-yl)-ethyl]-2-(pyridin-3-yloxy)-nicotinamide]"
11,65 to 67,"Cc1ccc(CNC(=O)c2cccnc2Oc2cccnc2)o1 [Example 19, N-(5-Methyl-furan-2-ylmethyl)-2-(pyridin-3-yloxy)-nicotinamide]"
12,93 to 95,"O=C(NCc1cc2ccccc2s1)c1cccnc1Oc1cccnc1 [Example 22, N-Benzo[b]thiophen-2-ylmethyl-2-(pyridin-3-yloxy)-nicotinamide]"
13,80 to 82,"O=C(NCc1ccc(Cl)o1)c1cccnc1Oc1cccnc1 [Example 23, N-(5-Chloro-furan-2-ylmethyl)-2-(pyridin-3-yloxy)-nicotinamide]"
14,98 to 100,"O=C(NCc1ccc(OCC(F)(F)F)cc1)c1cccnc1Oc1cccnc1 [Example 25, 2-(Pyridin-3-yloxy)-N-[4-(2,2,2-trifluoro-ethoxy)-benzyl]-nicotinamide]"
